Source: PubChem BioAssay (NCI)
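All cell lines were grown in 96-well plates and treated with compound for 48 hours. TGI marks complete inhibition of growth.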

Key:
Experiment in all cases: growth of human tumour cells (NCI), 48 h
SN12C renal = test system: SN12C renal
SK-MEL-5 melanoma = test system: SK-MEL-5 melanoma
KM12 colon = test system: KM12 colon
UACC-62 melanoma = test system: UACC-62 melanoma
A549 NSCLC = test system: A549 NSCLC
OVCAR-5 ovarian = test system: OVCAR-5 ovarian
M14 melanoma = test system: M14 melanoma
NCI-H460 lung = test system: NCI-H460 lung
TK-10 renal = test system: TK-10 renal
UO-31 renal = test system: UO-31 renal
SW-620 colon = test system: SW-620 colon
OVCAR-8 ovarian = test system: OVCAR-8 ovarian
HOP-62 NSCLC = test system: HOP-62 NSCLC
NCI-H23 lung = test system: NCI-H23 lung
SK-MEL-28 melanoma = test system: SK-MEL-28 melanoma
LOX IMVI melanoma = test system: LOX IMVI melanoma
CAKI-1 renal = test system: CAKI-1 renal
NCI-H226 lung = test system: NCI-H226 lung
CCRF-CEM leukemia = test system: CCRF-CEM leukemia
ACHN renal = test system: ACHN renal
LXFL 529 NSCLC = test system: LXFL 529 NSCLC
HCC-2998 colon = test system: HCC-2998 colon
EKVX NSCLC = test system: EKVX NSCLC
SNB-19 CNS = test system: SNB-19 CNS
SK-OV-3 ovarian = test system: SK-OV-3 ovarian
SF-539 CNS = test system: SF-539 CNS
DMS 114 small cell lung = test system: DMS 114 small cell lung
SF-268 CNS = test system: SF-268 CNS
SF-295 CNS = test system: SF-295 CNS
UACC-257 melanoma = test system: UACC-257 melanoma
SK-MEL-2 melanoma = test system: SK-MEL-2 melanoma
U251 CNS = test system: U251 CNS
COLO 205 colon = test system: COLO 205 colon
DLD-1 colon = test system: DLD-1 colon
HCT-15 colon = test system: HCT-15 colon
OVCAR-4 ovarian = test system: OVCAR-4 ovarian
OVCAR-3 ovarian = test system: OVCAR-3 ovarian
SNB-78 CNS = test system: SNB-78 CNS
NCI-H522 lung = test system: NCI-H522 lung
786-0 renal = test system: 786-0 renal
RPMI-8226 leukemia = test system: RPMI-8226 leukemia
KM20L2 colon = test system: KM20L2 colon
HOP-92 NSCLC = test system: HOP-92 NSCLC
SNB-75 CNS = test system: SNB-75 CNS
HCT-116 colon = test system: HCT-116 colon
MOLT-4 leukemia = test system: MOLT-4 leukemia
XF 498 CNS = test system: XF 498 CNS
M19-MEL melanoma = test system: M19-MEL melanoma
HL-60(TB) leukemia = test system: HL-60(TB) leukemia
HT29 colon = test system: HT29 colon
IGROV1 ovarian = test system: IGROV1 ovarian
MALME-3M melanoma = test system: MALME-3M melanoma
K-562 leukemia = test system: K-562 leukemia
RXF-631 renal = test system: RXF-631 renal
HOP-18 NSCLC = test system: HOP-18 NSCLC
DMS 273 small cell lung = test system: DMS 273 small cell lung
RXF 393 renal = test system: RXF 393 renal
A498 renal = test system: A498 renal
SR leukemia = test system: SR leukemia

C1=Cc2nc1c(-c1ccccc1)c1ccc([n-]1)c(-c1ccccc1)c1nc(c(-c3ccccc3)c3ccc([n-]3)c2-c2ccccc2)C=C1.[Zn+2]
TGI (SN12C renal): > 100 µM | TGI (SK-MEL-5 melanoma): > 100 µM | TGI (KM12 colon): > 100 µM | TGI (UACC-62 melanoma): > 100 µM | TGI (A549 NSCLC): > 100 µM | TGI (OVCAR-5 ovarian): > 100 µM | TGI (M14 melanoma): > 100 µM | TGI (NCI-H460 lung): > 100 µM | TGI (TK-10 renal): > 100 µM | TGI (UO-31 renal): > 100 µM | TGI (SW-620 colon): > 100 µM | TGI (OVCAR-8 ovarian): > 100 µM | TGI (HOP-62 NSCLC): > 100 µM | TGI (NCI-H23 lung): > 100 µM | TGI (SK-MEL-28 melanoma): > 100 µM | TGI (LOX IMVI melanoma): > 100 µM | TGI (CAKI-1 renal): > 100 µM | TGI (NCI-H226 lung): > 100 µM | TGI (CCRF-CEM leukemia): > 100 µM | TGI (ACHN renal): > 100 µM | TGI (LXFL 529 NSCLC): > 100 µM | TGI (HCC-2998 colon): > 100 µM | TGI (EKVX NSCLC): > 100 µM | TGI (SNB-19 CNS): > 100 µM | TGI (SK-OV-3 ovarian): > 100 µM | TGI (SF-539 CNS): > 100 µM | TGI (DMS 114 small cell lung): > 100 µM | TGI (SF-268 CNS): > 100 µM | TGI (SF-295 CNS): > 100 µM | TGI (UACC-257 melanoma): > 100 µM | TGI (SK-MEL-2 melanoma): > 100 µM | TGI (U251 CNS): > 100 µM | TGI (COLO 205 colon): > 100 µM | TGI (DLD-1 colon): > 100 µM | TGI (HCT-15 colon): > 100 µM | TGI (OVCAR-4 ovarian): > 100 µM | TGI (OVCAR-3 ovarian): > 100 µM | TGI (SNB-78 CNS): > 100 µM | TGI (NCI-H522 lung): > 100 µM | TGI (786-0 renal): > 100 µM | TGI (RPMI-8226 leukemia): > 100 µM | TGI (KM20L2 colon): > 100 µM | TGI (HOP-92 NSCLC): > 100 µM | TGI (SNB-75 CNS): > 100 µM | TGI (HCT-116 colon): > 100 µM | TGI (MOLT-4 leukemia): > 100 µM | TGI (XF 498 CNS): > 100 µM | TGI (M19-MEL melanoma): > 100 µM | TGI (HL-60(TB) leukemia): > 100 µM | TGI (HT29 colon): > 100 µM | TGI (IGROV1 ovarian): > 100 µM | TGI (MALME-3M melanoma): > 100 µM | TGI (K-562 leukemia): > 100 µM | TGI (RXF-631 renal): > 100 µM

CC(=O)Oc1cc2c(=O)oc3c(OC(C)=O)c(OC(C)=O)c(OC(C)=O)c4c(=O)oc(c1OC(C)=O)c2c34
TGI (SN12C renal): 61.1 µM | TGI (SK-MEL-5 melanoma): > 100 µM | TGI (KM12 colon): > 100 µM | TGI (UACC-62 melanoma): > 100 µM | TGI (A549 NSCLC): > 100 µM | TGI (OVCAR-5 ovarian): > 100 µM | TGI (M14 melanoma): > 100 µM | TGI (NCI-H460 lung): > 100 µM | TGI (HOP-18 NSCLC): > 100 µM | TGI (TK-10 renal): > 100 µM | TGI (UO-31 renal): > 100 µM | TGI (SW-620 colon): > 100 µM | TGI (OVCAR-8 ovarian): > 100 µM | TGI (DMS 273 small cell lung): > 100 µM | TGI (HOP-62 NSCLC): > 100 µM | TGI (NCI-H23 lung): > 100 µM | TGI (SK-MEL-28 melanoma): > 100 µM | TGI (LOX IMVI melanoma): 32.6 µM | TGI (CAKI-1 renal): > 100 µM | TGI (NCI-H226 lung): 99 µM | TGI (CCRF-CEM leukemia): 63.3 µM | TGI (ACHN renal): > 100 µM | TGI (LXFL 529 NSCLC): > 100 µM | TGI (HCC-2998 colon): > 100 µM | TGI (EKVX NSCLC): > 100 µM | TGI (SNB-19 CNS): > 100 µM | TGI (SK-OV-3 ovarian): > 100 µM | TGI (SF-539 CNS): 75.5 µM | TGI (DMS 114 small cell lung): 58 µM | TGI (SF-268 CNS): > 100 µM | TGI (SF-295 CNS): 52.9 µM | TGI (RXF 393 renal): 32 µM | TGI (UACC-257 melanoma): > 100 µM | TGI (SK-MEL-2 melanoma): > 100 µM | TGI (U251 CNS): > 100 µM | TGI (COLO 205 colon): > 100 µM | TGI (DLD-1 colon): > 100 µM | TGI (HCT-15 colon): > 100 µM | TGI (OVCAR-4 ovarian): > 100 µM | TGI (OVCAR-3 ovarian): > 100 µM | TGI (SNB-78 CNS): > 100 µM | TGI (NCI-H522 lung): > 100 µM | TGI (786-0 renal): > 100 µM | TGI (RPMI-8226 leukemia): > 100 µM | TGI (KM20L2 colon): > 100 µM | TGI (HOP-92 NSCLC): 96.9 µM | TGI (SNB-75 CNS): > 100 µM | TGI (HCT-116 colon): 52.6 µM | TGI (MOLT-4 leukemia): > 100 µM | TGI (XF 498 CNS): 76.5 µM | TGI (M19-MEL melanoma): 40.6 µM | TGI (HL-60(TB) leukemia): > 100 µM | TGI (A498 renal): > 100 µM | TGI (HT29 colon): > 100 µM | TGI (IGROV1 ovarian): > 100 µM | TGI (MALME-3M melanoma): > 100 µM | TGI (K-562 leukemia): > 100 µM | TGI (SR leukemia): > 100 µM | TGI (RXF-631 renal): 78.5 µM

CCCCC1(OC(=O)CCC(=O)O)CCC2(CCC(C)C(C/C=C(C)/C=C/C(O)C(C)/C=C/C(=O)O)O2)OC1CC/C(C)=C/C(=O)O (configuration not stated)
TGI (SN12C renal): 9.2 µM | TGI (SK-MEL-5 melanoma): 3.14 µM | TGI (KM12 colon): 11.8 µM | TGI (UACC-62 melanoma): 2.62 µM | TGI (A549 NSCLC): 36.6 µM | TGI (OVCAR-5 ovarian): 14.4 µM | TGI (M14 melanoma): 4.52 µM | TGI (NCI-H460 lung): 18.4 µM | TGI (HOP-18 NSCLC): 29.8 µM | TGI (TK-10 renal): 58.5 µM | TGI (UO-31 renal): 8.14 µM | TGI (SW-620 colon): 39.8 µM | TGI (OVCAR-8 ovarian): 7.67 µM | TGI (DMS 273 small cell lung): 18.2 µM | TGI (HOP-62 NSCLC): 4.96 µM | TGI (NCI-H23 lung): 3.49 µM | TGI (SK-MEL-28 melanoma): 5.07 µM | TGI (LOX IMVI melanoma): 3.27 µM | TGI (CAKI-1 renal): 15.3 µM | TGI (NCI-H226 lung): 6.1 µM | TGI (CCRF-CEM leukemia): 27.4 µM | TGI (ACHN renal): 26.2 µM | TGI (LXFL 529 NSCLC): 3.83 µM | TGI (HCC-2998 colon): 9.98 µM | TGI (EKVX NSCLC): 25.7 µM | TGI (SNB-19 CNS): 11.8 µM | TGI (SK-OV-3 ovarian): 25.4 µM | TGI (SF-539 CNS): 3.51 µM | TGI (DMS 114 small cell lung): 8.56 µM | TGI (SF-268 CNS): 7.22 µM | TGI (SF-295 CNS): 15.8 µM | TGI (RXF 393 renal): 4.58 µM | TGI (UACC-257 melanoma): 2.57 µM | TGI (SK-MEL-2 melanoma): 3.18 µM | TGI (U251 CNS): 15.6 µM | TGI (COLO 205 colon): 35.1 µM | TGI (DLD-1 colon): 13.8 µM | TGI (HCT-15 colon): 12.4 µM | TGI (OVCAR-4 ovarian): 7.78 µM | TGI (OVCAR-3 ovarian): 11.2 µM | TGI (SNB-78 CNS): 7.75 µM | TGI (NCI-H522 lung): 7.72 µM | TGI (786-0 renal): 14.3 µM | TGI (RPMI-8226 leukemia): > 37.3 µM | TGI (KM20L2 colon): 46.8 µM | TGI (HOP-92 NSCLC): 4.74 µM | TGI (SNB-75 CNS): 6.74 µM | TGI (HCT-116 colon): > 50.4 µM | TGI (MOLT-4 leukemia): 26.9 µM | TGI (XF 498 CNS): 4.66 µM | TGI (M19-MEL melanoma): 7.95 µM | TGI (HL-60(TB) leukemia): 24.5 µM | TGI (A498 renal): 12.6 µM | TGI (HT29 colon): 43.6 µM | TGI (IGROV1 ovarian): 4.89 µM | TGI (MALME-3M melanoma): 20.3 µM | TGI (K-562 leukemia): 9.99 µM | TGI (SR leukemia): > 48.7 µM | TGI (RXF-631 renal): 5.7 µM
